Among the data in patent US20210355104A1, “ADENOSINE RECEPTOR BINDING COMPOUNDS” (Nikang Therapeuticsm Inc., priority 2018, published 2021) are IC50 values, retold here.

For assay [1], the system named is p-CREB (phosphorylated cAMP response-element binding protein) in human whole blood. Briefly: p-CREB assay in human whole blood by flow cytometry (NECA stimulation, CD4 staining). It is filed as cell-based. In short, it runs like this: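 Fresh human whole blood preincubated 1 h at room temperature with compounds (11-point 1:3 series from 30 uM) plus adenosine deaminase, then stimulated 30 min with NECA and Rolipram (10× additions of 50 uM stocks). Cells lysed/fixed, permeabilised, stained for p-CREB and CD4, read by flow cytometry.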

Assay [2] concerns the target T1, Adenosine A2A receptor (Homo sapiens, UniProt P29274). Briefly: cAMP assay in 293A cells stably expressing the adenosine A2A receptor (CGS21680 stimulation, HTRF). It is filed as cell-based. Also noted: expressed in transfected cells; host or cells: 293A cells (Invitrogen, Cat# R705-07) infected with A2A-expressing lentivirus (custom packaged by Biosettia), puromycin selected. Particulars: 0.1% BSA. For orientation: Cyclic AMP is a second messenger, typically raised through Gs and lowered through Gi signalling.

For assay [3], the target named is T1, Adenosine A2A receptor. Briefly: Adenosine A2A receptor competitive binding assay (Tag-lite HTRF). The following applies: Tag-lite adenosine A2A receptor ligand binding. The method in brief:
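Compound displacement of a red fluorescent antagonist tracer (added at 60 nM stock) from donor-labelled, pre-transfected human A2A cells was read by HTRF after 2 h at room temperature; compound dilutions contained 0.6% DMSO.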
(In TR-FRET formats the signal depends on donor and acceptor labels being close together.)

The mark [4] stands for this setting: Homo sapiens, values separated by / are repeat determinations.
[5] abbreviates: 2 h room temperature, values separated by / are repeat determinations.
Setting [6] is: Homo sapiens, replicate values separated by /.
The mark [7] stands for this setting: 293A cells stably expressing A2A receptor, 1 uM CGS21680 stimulation, replicate values separated by /, read-out: cAMP (nM) 0.1% BSA, 1 uM CGS.
Setting [8] is: replicate values separated by /.

Values joined by “and” are separate entries in the source; they are usually repeats but may differ in a detail not shown here. Identical values can stand only once.

T1 sequence (P29274 whole entry): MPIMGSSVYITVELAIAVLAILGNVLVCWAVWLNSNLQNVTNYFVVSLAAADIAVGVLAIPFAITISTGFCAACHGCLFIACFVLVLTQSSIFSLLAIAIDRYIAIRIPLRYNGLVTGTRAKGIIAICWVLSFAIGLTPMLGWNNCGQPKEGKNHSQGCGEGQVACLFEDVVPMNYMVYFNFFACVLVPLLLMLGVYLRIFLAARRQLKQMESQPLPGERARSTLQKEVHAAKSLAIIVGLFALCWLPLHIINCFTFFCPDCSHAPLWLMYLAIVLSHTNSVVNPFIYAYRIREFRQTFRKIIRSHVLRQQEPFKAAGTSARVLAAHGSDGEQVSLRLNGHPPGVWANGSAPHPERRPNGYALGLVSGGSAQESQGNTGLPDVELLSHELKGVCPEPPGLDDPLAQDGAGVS

Regarding `Cc1cc(-c2c(OCC3CCOCC3)nc(N)nc2-c2ccc(F)cc2)cc(C(F)F)n1` [Example 55, 5-(2-(difluoromethyl)-6-methylpyridin-4-yl)-4-(4-fluorophenyl)-6-((tetrahydro-2H-pyran-4-yl)methoxy)pyrimidin-2-amine], the IC50 in assay [1] (setting [4]) is 93 nM; on Adenosine A2A receptor [2] (293A-A2AR cells, 8 nM CGS, values separated by / are repeat determinations, read-out: cAMP (nM) 0.1% BSA, 8 nM CGS), 0.54 nM and 0.49 nM; on Adenosine A2A receptor [2] (293A-A2AR cells, 1 uM CGS, values separated by / are repeat determinations, read-out: cAMP (nM) 0.1% BSA, 1 uM CGS), 96 nM; on Adenosine A2A receptor [3] (setting [5]), 0.7 nM and 5.4 nM.

In the case of `COCC(O)COc1nc(N)nc(-c2ccc(F)cc2)c1-c1cc(C)nc(C(F)F)c1` (stereo not drawn) [Example 85, 1-((2-amino-5-(2-(difluoromethyl)-6-methylpyridin-4-yl)-6-(4-fluorophenyl)pyrimidin-4-yl)oxy)-3-methoxypropan-2-ol], the IC50 amounted to 469 nM in assay [1] (setting [4]) and 4.2 nM at Adenosine A2A receptor [3] (setting [5]).

`Cc1cc(-c2c(OCc3nccn3CCCC(=O)O)nc(N)nc2-c2ccc(F)cc2)cc(C(F)F)n1` [Example 219, 4-(2-(((2-amino-5-(2-(difluoromethyl)-6-methylpyridin-4-yl)-6-(4-fluorophenyl)pyrimidin-4-yl)oxy)methyl)-1H-imidazol-1-yl)butanoic acid]: the IC50 in assay [1] (Homo sapiens) is 170 nM; on Adenosine A2A receptor [3] (HTRF), 9 nM.

Consider `Cc1cc(-c2c(OCc3cccc(C(C)(C)NCCO)n3)nc(N)nc2-c2ccc(F)cc2)cc(C(F)F)n1` [Example 407, 2-((2-(6-(((2-amino-5-(2-(difluoromethyl)-6-methylpyridin-4-yl)-6-(4-fluorophenyl)pyrimidin-4-yl)oxy)methyl)pyridin-2-yl)propan-2-yl)amino)ethan-1-ol], for which the IC50 in assay [1] (setting [6]) is 91.5 nM; on Adenosine A2A receptor [2] (setting [7]), 107 nM and 88 nM.

As to `Cc1cc(-c2c(OCCN3CCCc4cccnc43)nc(N)nc2-c2ccc(F)cc2)cc(C(F)F)n1` [Example 408, 5-(2-(difluoromethyl)-6-methylpyridin-4-yl)-4-(2-(3,4-dihydro-1,8-naphthyridin-1 (2H)-yl)ethoxy)-6-(4-fluorophenyl)pyrimidin-2-amine], the IC50 in assay [1] (setting [6]) is 37.9 nM; at Adenosine A2A receptor [2] (setting [7]) it was 68 nM and 41 nM and 19 nM and 74 nM.

`COC(=O)NCc1cccc(COc2nc(N)nc(-c3ccc(F)cc3)c2-c2cc(C)nc(C(F)F)c2)n1` [Example 410, methyl((6-(((2-amino-5-(2-(difluoromethyl)-6-methylpyridin-4-yl)-6-(4-fluorophenyl)pyrimidin-4-yl)oxy)methyl)pyridin-2-yl)methyl)carbamate]: the IC50 is 20 nM in assay [1] (setting [6]); 97 nM and 142 nM and 124 nM and 178 nM at Adenosine A2A receptor [2] (setting [7]).

Consider `Cc1cc(-c2c(OCc3ccnc(N)n3)nc(N)nc2-c2ccc(F)cc2)cc(C(F)F)n1` [Example 413, 4-((2-aminopyrimidin-4-yl)methoxy)-5-(2-(difluoromethyl)-6-methylpyridin-4-yl)-6-(4-fluorophenyl)pyrimidin-2-amine], for which the IC50 in assay [1] (setting [6]) was 50.2 nM; in assay [1] (setting [8]) it was 40.8 nM; at Adenosine A2A receptor [2] (setting [7]), 4.5 nM and 19 nM and 14 nM.

Regarding `CNC(=O)NCc1cccc(COc2nc(N)nc(-c3ccc(F)cc3)c2-c2cc(C)nc(C(F)F)c2)n1` [Example 415, 1-((6-(((2-amino-5-(2-(difluoromethyl)-6-methylpyridin-4-yl)-6-(4-fluorophenyl)pyrimidin-4-yl)oxy)methyl)pyridin-2-yl)methyl)-3-methylurea], the IC50 in assay [1] (setting [6]) is 16 nM; at Adenosine A2A receptor [2] (setting [7]) it was 97 nM and 152 nM and 129 nM.

For `Cc1cc(-c2c(OCc3cccc(C(C)(C)NC(CO)CO)n3)nc(N)nc2-c2ccc(F)cc2)cc(C(F)F)n1` [Example 417, 2-((2-(6-(((2-amino-5-(2-(difluoromethyl)-6-methylpyridin-4-yl)-6-(4-fluorophenyl)pyrimidin-4-yl)oxy)methyl)pyridin-2-yl)propan-2-yl)amino)propane-1,3-diol], the IC50 is 38.7 nM in assay [1] (setting [6]); 60 nM and 44 nM at Adenosine A2A receptor [2] (setting [7]).

With `Cc1cc(-c2c(OCc3cccc(CNCCO)n3)nc(N)nc2-c2ccc(F)cc2)cc(C(F)F)n1` [Example 418, 2-(((6-(((2-amino-5-(2-(difluoromethyl)-6-methylpyridin-4-yl)-6-(4-fluorophenyl)pyrimidin-4-yl)oxy)methyl)pyridin-2-yl)methyl)amino)ethan-1-ol], the IC50 in assay [1] (setting [6]) is 89.3 nM; at Adenosine A2A receptor [2] (setting [7]), 191 nM and 177 nM.

As to `Cc1cc(-c2c(OCc3cccc(CNC(CO)CO)n3)nc(N)nc2-c2ccc(F)cc2)cc(C(F)F)n1` [Example 419, 2-(((6-(((2-amino-5-(2-(difluoromethyl)-6-methylpyridin-4-yl)-6-(4-fluorophenyl)pyrimidin-4-yl)oxy)methyl)pyridin-2-yl)methyl)amino)propane-1,3-diol], the IC50 in assay [1] (setting [6]) is 87.8 nM; on Adenosine A2A receptor [2] (setting [7]), 470 nM and 311 nM.

Turning to `Cc1cc(-c2c(OCc3cccc(OC(CO)CO)n3)nc(N)nc2-c2ccc(F)cc2)cc(C(F)F)n1` [Example 420], the IC50 in assay [1] (setting [6]) is 55.7 nM; at Adenosine A2A receptor [2] (setting [7]), 122 nM and 112 nM.

Turning to `Cc1cc(-c2c(OCc3ccc(=O)n(C)n3)nc(N)nc2-c2ccc(F)cc2)cc(C(F)F)n1` [Example 422, 6-(((2-amino-5-(2-(difluoromethyl)-6-methylpyridin-4-yl)-6-(4-fluorophenyl)pyrimidin-4-yl)oxy)methyl)-2-methylpyridazin-3(2H)-one], the IC50 in assay [1] (setting [6]) is 424 nM; on Adenosine A2A receptor [2] (setting [7]), 432 nM and 338 nM.

`CNC(=O)OCc1cccc(COc2nc(N)nc(-c3ccc(F)cc3)c2-c2cc(C)nc(C(F)F)c2)n1` [Example 425, (6-(((2-amino-5-(2-(difluoromethyl)-6-methylpyridin-4-yl)-6-(4-fluorophenyl)pyrimidin-4-yl)oxy)methyl)pyridin-2-yl)methyl methylcarbamate]: the IC50 in assay [1] (setting [6]) is 33.3 nM; in assay [1] (setting [8]) it was 29 nM; at Adenosine A2A receptor [2] (setting [7]), 35 nM and 74 nM and 23 nM.

As to `Cc1cc(-c2c(OCc3cccc(COC(N)=O)n3)nc(N)nc2-c2ccc(F)cc2)cc(C(F)F)n1` [Example 429, (6-(((2-amino-5-(2-(difluoromethyl)-6-methylpyridin-4-yl)-6-(4-fluorophenyl)pyrimidin-4-yl)oxy)methyl)pyridin-2-yl)methyl carbamate], the IC50 in assay [1] (setting [6]) is 33 nM; at Adenosine A2A receptor [2] (setting [7]), 59 nM and 43 nM.

With `Cc1cc(-c2c(OCc3cccc(C(C#N)(CCO)CCO)n3)nc(N)nc2-c2ccc(F)cc2)cc(C(F)F)n1` [Example 431, 2-(6-(((2-amino-5-(2-(difluoromethyl)-6-methylpyridin-4-yl)-6-(4-fluorophenyl)pyrimidin-4-yl)oxy)methyl)pyridin-2-yl)-4-hydroxy-2-(2-hydroxyethyl)butanenitrile], the IC50 is 2000 nM in assay [1] (setting [6]); 412 nM and 315 nM and 310 nM on Adenosine A2A receptor [2] (setting [7]).

With `Cc1cc(-c2c(OCc3cccc(CNCC(N)=O)n3)nc(N)nc2-c2ccc(F)cc2)cc(C(F)F)n1` [Example 433, 2-(((6-(((2-amino-5-(2-(difluoromethyl)-6-methylpyridin-4-yl)-6-(4-fluorophenyl)pyrimidin-4-yl)oxy)methyl)pyridin-2-yl)methyl)amino)acetamide], the IC50 in assay [1] (setting [6]) is 59 nM; at Adenosine A2A receptor [2] (setting [7]), 342 nM and 210 nM.

As for `Cc1cc(-c2c(OCc3ccnc(OC(CO)CO)n3)nc(N)nc2-c2ccc(F)cc2)cc(C(F)F)n1` [Example 434, 2-((4-(((2-amino-5-(2-(difluoromethyl)-6-methylpyridin-4-yl)-6-(4-fluorophenyl)pyrimidin-4-yl)oxy)methyl)pyrimidin-2-yl)oxy)propane-1,3-diol], the IC50 in assay [1] (setting [6]) is 411 nM; on Adenosine A2A receptor [2] (setting [7]), 346 nM and 290 nM.

Take `Cc1cc(-c2c(OCc3cccc(CNCC(=O)N(C)C)n3)nc(N)nc2-c2ccc(F)cc2)cc(C(F)F)n1` [Example 437, 2-(((6-(((2-amino-5-(2-(difluoromethyl)-6-methylpyridin-4-yl)-6-(4-fluorophenyl)pyrimidin-4-yl)oxy)methyl)pyridin-2-yl)methyl)amino)-N,N-dimethylacetamide]: the figures for the IC50 (in assay [1] (setting [6]); on Adenosine A2A receptor [2] (setting [7])) were 232 nM and 282 nM, respectively.

On to `Cc1cc(-c2c(OCc3cccc(C4(CCO)CCOC4=O)n3)nc(N)nc2-c2ccc(F)cc2)cc(C(F)F)n1` (stereo not drawn) [Example 439, 3-(6-(((2-amino-5-(2-(difluoromethyl)-6-methylpyridin-4-yl)-6-(4-fluorophenyl)pyrimidin-4-yl)oxy)methyl)pyridin-2-yl)-3-(2-hydroxyethyl)dihydrofuran-2(3H)-one], for which the IC50 in assay [1] (setting [6]) was found to be 252 nM; at Adenosine A2A receptor [2] (setting [7]), 103 nM.

Regarding `CNC(=O)CNCc1cccc(COc2nc(N)nc(-c3ccc(F)cc3)c2-c2cc(C)nc(C(F)F)c2)n1` [Example 440, 2-(((6-(((2-amino-5-(2-(difluoromethyl)-6-methylpyridin-4-yl)-6-(4-fluorophenyl)pyrimidin-4-yl)oxy)methyl)pyridin-2-yl)methyl)amino)-N-methylacetamide], the IC50 came out at 95 nM in assay [1] (setting [6]) and 215 nM on Adenosine A2A receptor [2] (setting [7]).

For `Cc1cc(-c2c(OCc3cccc(NC(CO)CO)n3)nc(N)nc2-c2ccc(F)cc2)cc(C(F)F)n1` [Example 442, 2-((6-(((2-amino-5-(2-(difluoromethyl)-6-methylpyridin-4-yl)-6-(4-fluorophenyl)pyrimidin-4-yl)oxy)methyl)pyridin-2-yl)amino)propane-1,3-diol], the IC50 in assay [1] (setting [6]) came out at 208 nM; at Adenosine A2A receptor [2] (setting [7]), 177 nM.
